According to EP4563146A1 (IRBM S.P.A., priority 2023, dated 2025):
pEC50, pIC50: −log10 of the molar value. Where two headings read alike, the source gives them in different places.

Key:
[1] = biological target: T1, West Nile Virus (WNV) NS2B-NS3 protease (West Nile virus, UniProt Q9Q6P4); test: WNV protease inhibition assay; type: biochemical; settings: Table 4; letter codes for IC50
T1 construct: NS2B1423-1470); purchased R&D 2907-SE-020
Source text: WNV protease inhibition assay

[2] = biological target: Japanese encephalitis virus (JEV)-NS2B-NS3 protease (Japanese encephalitis virus, UniProt P32886, DEL1469-1493); test: JEV protease inhibition assay; type: biochemical
[3] = test system: ZIKV replicon; test: ZIKV replication inhibition assay (NanoLuc replicon in Vero cells); settings: read-out: ZIKA Cell_Nanoluc, 72 h
[4] = 600 nM enzyme, 10 µM Pyr-RTKR-AMC substrate, 25 °C, read-out: JEV - NS3 protease
[5] = Vero cells with stable ZIKV replicon, Nano-Glo readout
[6] = read-out: JEV - NS3 protease, 600 nM enzyme, 10 µM Pyr-RTKR-AMC substrate, 25 °C

Molecule	pIC50 [2]	pEC50 ([3]; Zika virus, Vero)	other results
CN(C)C[C@H]1CC[C@H]([n+]2cc([N-]C(=O)Nc3cc(NC(=O)Cc4ccc5c(c4)OCO5)cc(C(F)(F)F)c3)on2)CC1 [Example 154, ((3-(2-(Benzo[d][1,3]dioxol-5-yl)acetamido)-5-(trifluoromethyl)phenyl)carbamoyl)(3-((1R,4R)-4-((dimethylamino)methyl)cyclohexyl)-1,2,3-oxadiazol-3-ium-5-yl)amide]	–	–	pIC50 [1]: 4.70 to 6.00; pIC50 [2, 4]: < 4.70; pEC50 [3, 5]: < 4.70
((3-Cyclopropyl-5-(2-(phenylsulfonyl)-acetamido)phenyl)carbamoyl)(3-((1R,4R)-4-((dimethylamino)methyl)cyclohexyl)-1,2,3-oxadiazol-3-ium-5-yl)amide [Example 150]	–	–	pIC50 [1]: > 7.00; pIC50 [2, 4]: 4.70 to 6.00; pEC50 [3, 5]: 4.70 to 6.00
CN(C)C[C@H]1CC[C@H]([n+]2cc([N-]C(=O)Nc3cc(NC(=O)Cc4ccccc4)cc(C(F)(F)F)c3)on2)CC1 [Example 94, (3-((1R,4R)-4-((Dimethylamino)methyl)-cyclohexyl)-1,2,3-oxadiazol-3-ium-5-yl)((3-(2-phenylacetamido)-5-(trifluoromethyl)phenyl)-carbamoyl)amide]	–	–	pIC50 [2, 6]: 4.70 to 6.00
CN(C)[C@H]1C[C@H]([n+]2cc([N-]C(=O)Nc3cc(NC(=O)Cc4ccccc4)cc(C(F)(F)F)c3)on2)C1 [Example 55, (3-((1R3R)-3-(Dimethylamino)cyclobutyl)-1,2,3-oxadiazol-3-ium-5-yl)((3-(2-phenyl-acetamido)-5-(trifluoromethyl)phenyl)-carbamoyl)amide]	4.70 to 6.00	4.70 to 6.00	–
O=C([N-]c1c[n+]([C@H]2CC[C@@H](CNCC(F)(F)F)CC2)no1)Nc1cc(N2CCC(c3ccccc3)C2=O)cc(C(F)(F)F)c1 (stereo partly drawn) [Example 135, ((3-(2-Oxo-3-phenylpyrrolidin-1-yl)-5-(trifluoromethyl)phenyl)carbamoyl)(3-((1S,4S)-4-(((2,2,2-trifluoroethyl)amino)methyl)-cyclohexyl)-1,2,3-oxadiazol-3-ium-5-yl)amide]	< 4.70	4.70 to 6.00	–
NC[C@H]1CC[C@@H]([n+]2cc([N-]C(=O)Nc3cc(NC(=O)Cc4ccccc4)cc(C(F)(F)F)c3)on2)CC1 [Example 59, (3-((1S,4S)-4-(Aminomethyl)cyclohexyl)-1,2,3-oxadiazol-3-ium-5-yl)((3-(2-phenyl-acetamido)-5-(trifluoromethyl)phenyl)-carbamoyl)amide]	4.70 to 6.00	4.70 to 6.00	–
N[C@H]1CC[C@H]([n+]2cc([N-]C(=O)Nc3cc(NC(=O)Cc4ccccc4)cc(C(F)(F)F)c3)on2)CC1 [Example 92, (3-((1R,4R)-4-Aminocyclohexyl)-1,2,3-oxadiazol-3-ium-5-yl)((3-(2-phenylacetamido)-5-(trifluoromethyl)phenyl)carbamoyl)amide]	4.70 to 6.00	< 4.70	–
NC[C@H]1CC[C@@H]([n+]2cc([N-]C(=O)Nc3cc(N4CCC(c5ccccc5)C4=O)cc(C(F)(F)F)c3)on2)CC1 (stereo partly drawn) [Example 119, (3-((1S,4S)-4-(Aminomethyl)cyclohexyl)-1,2,3-oxadiazol-3-ium-5-yl)((3-(2-oxo-3-phenylpyrrolidin-1-yl)-5-(trifluoromethyl)phenyl)-carbamoyl)amide]	4.70 to 6.00	4.70 to 6.00	–
CN(C)C[C@H]1CC[C@H]([n+]2cc([N-]C(=O)Nc3cc(NC(=O)Cc4ccccc4)cc(C(F)(F)F)c3)on2)CC1 [Example 147, (3-((1R,4R)-4-((Dimethylamino)methyl)-cyclohexyl)-1,2,3-oxadiazol-3-ium-5-yl)((3-(2-phenylacetamido)-5-(trifluoromethyl)phenyl)-carbamoyl)amide]	–	4.70 to 6.00	pIC50 [1]: > 7.00; pIC50 [2, 4]: 4.70 to 6.00
COc1ncc(-c2ccc(C[n+]3cc([N-]C(=O)Nc4cc(NC(=O)Cc5ccc(Cl)cc5)cc(C(F)(F)F)c4)on3)cc2)c(C)n1 [Example 17]	–	4.70 to 6.00	pIC50 [2, 6]: < 4.70
O=C([N-]c1c[n+](C[C@H]2CC[C@H](NCC(F)(F)F)CC2)no1)Nc1cc(N2CC[C@H](c3ccccc3)C2=O)cc(C(F)(F)F)c1 [Example 144, ((3-((R)-2-Oxo-3-phenylpyrrolidin-1-yl)-5-(trifluoromethyl)phenyl)carbamoyl)(3-(((1r,4r)-4-((2,2,2-trifluoroethyl)amino)cyclohexyl)-methyl)-1,2,3-oxadiazol-3-ium-5-yl)amide]	4.70 to 6.00	6.00 to 7.00	–
CN(C)[C@H]1CC[C@H]([n+]2cc([N-]C(=O)Nc3cc(NC(=O)Cc4ccccc4)cc(C(F)(F)F)c3)on2)CC1 [Example 96, (3-((1R,4R)-4-(dimethylamino)cyclohexyl)-1,2,3-oxadiazol-3-ium-5-yl)((3-(2-phenylacetamido)-5-(trifluoromethyl)phenyl)-carbamoyl)amide]	4.70 to 6.00	4.70 to 6.00	–
O=C(Cc1ccccc1)Nc1cc(NC(=O)[N-]c2c[n+]([C@H]3CC[C@@H](CN4C(=O)c5ccccc5C4=O)CC3)no2)cc(C(F)(F)F)c1 [Example 60, (3-((1S,4S)-4-((1,3-Dioxoisoindolin-2-yl)methyl)cyclohexyl)-1,2,3-oxadiazol-3-ium-5-yl)((3-(2-phenylacetamido)-5-(trifluoromethyl)-phenyl)carbamoyl)amide]	4.70 to 6.00	4.70 to 6.00	–
N[C@H]1C[C@H]([n+]2cc([N-]C(=O)Nc3cc(NC(=O)Cc4ccccc4)cc(C(F)(F)F)c3)on2)C1 [Example 26, (3-((1R,3R)-3-Aminocyclobutyl)-1,2,3-oxadiazol-3-ium-5-yl)((3-(2-phenylacetamido)-5-(trifluoromethyl)phenyl)carbamoyl)amide]	4.70 to 6.00	< 4.70	–
O=C([N-]c1c[n+](C[C@H]2CC[C@@H](CNCC(F)(F)F)CC2)no1)Nc1cc(N2CCC(c3ccccc3)C2=O)cc(C(F)(F)F)c1 (stereo partly shown) [Example 139, ((3-(2-Oxo-3-phenylpyrrolidin-1-yl)-5-(trifluoromethyl)phenyl)carbamoyl)(3-(((1s,4s)-4-(((2,2,2-trifluoroethyl)amino)methyl)cyclohexyl)-methyl)-1,2,3-oxadiazol-3-ium-5-yl)amide]	< 4.70	4.70 to 6.00	–
N[C@H]1CC[C@H](C[n+]2cc([N-]C(=O)Nc3cc(N4CC[C@H](c5ccccc5)C4=O)cc(C(F)(F)F)c3)on2)CC1 [Example 143, (3-(((1R,4R)-4-Aminocyclohexyl)methyl)-1,2,3-oxadiazol-3-ium-5-yl)((3-((R)-2-oxo-3-phenylpyrrolidin-1-yl)-5-(trifluoromethyl)-phenyl)carbamoyl)amide]	4.70 to 6.00	< 4.70	–
CN(C)[C@H]1CC[C@@H]([n+]2cc([N-]C(=O)Nc3cc(NC(=O)Cc4ccccc4)cc(C(F)(F)F)c3)on2)CC1 [Example 95, (3-((1S,4S)-4-(Dimethylamino)cyclohexyl)-1,2,3-oxadiazol-3-ium-5-yl)((3-(2-phenylacetamido)-5-(trifluoromethyl)phenyl)-carbamoyl)amide]	4.70 to 6.00	4.70 to 6.00	–
COc1ncc(-c2ccc(C[n+]3cc([N-]C(=O)Nc4cc(NC(=O)c5ccccc5)cc(C(F)(F)F)c4)on3)cc2)c(C)n1 [Example 15]	–	6.00 to 7.00	pIC50 [2, 6]: 4.70 to 6.00
CC(=O)NC[C@H]1CC[C@@H]([n+]2cc([N-]C(=O)Nc3cc(NC(=O)Cc4ccccc4)cc(C(F)(F)F)c3)on2)CC1 [Example 62, (3-((1S,4S)-4-(Acetamidomethyl)cyclohexyl)-1,2,3-oxadiazol-3-ium-5-yl)((3-(2-phenylacetamido)-5-(trifluoromethyl)phenyl)carbamoyl)amide]	4.70 to 6.00	< 4.70	–
CN(C)C[C@H]1CC[C@@H]([n+]2cc([N-]C(=O)Nc3cc(N4CCC(c5ccccc5)C4=O)cc(C(F)(F)F)c3)on2)CC1 (stereo partly drawn) [Example 138, (3-((1S,4S)-4-((Dimethylamino)methyl)-cyclohexyl)-1,2,3-oxadiazol-3-ium-5-yl)((3-(2-oxo-3-phenylpyrrolidin-1-yl)-5-(trifluoromethyl)-phenyl)carbamoyl)amide]	4.70 to 6.00	4.70 to 6.00	–
COc1ncc(-c2ccc(C[n+]3cc([N-]C(=O)Nc4cc(NC(=O)Cc5ccc(CN)cc5)cc(C(F)(F)F)c4)on3)cc2)c(C)n1 [Example 22]	–	4.70 to 6.00	pIC50 [2, 6]: < 4.70
CN(C)C[C@H]1CC[C@@H]([n+]2cc([N-]C(=O)Nc3cc(NC(=O)Cc4ccccc4)cc(C(F)(F)F)c3)on2)CC1 [Example 61, (3-((1S,4S)- -4-((Dimethylamino)methyl)cyclohexyl)-1,2,3-oxadiazol-3-ium-5-yl)((3-(2-phenylacetamido)-5-(trifluoromethyl)phenyl)carbamoyl)amide]	4.70 to 6.00	4.70 to 6.00	–
COc1ncc(-c2ccc(C[n+]3cc([N-]C(=O)Nc4cc(NC(=O)Cc5noc6ccccc56)cc(C(F)(F)F)c4)on3)cc2)c(C)n1 [Example 20]	–	< 4.70	pIC50 [2, 6]: < 4.70
NC[C@H]1CC[C@H]([n+]2cc([N-]C(=O)Nc3cc(NC(=O)Cc4ccccc4)cc(C(F)(F)F)c3)on2)CC1 [Example 93, (3-((1R,4R)-4-(Aminomethyl)cyclohexyl)-1,2,3-oxadiazol-3-ium-5-yl)((3-(2-phenyl-acetamido)-5-(trifluoromethyl)phenyl)-carbamoyl)amide]	6.00 to 7.00	4.70 to 6.00	–
N[C@H]1CC[C@@H]([n+]2cc([N-]C(=O)Nc3cc(NC(=O)Cc4ccccc4)cc(C(F)(F)F)c3)on2)CC1 [Example 91, (3-((1S,4S)-4-Aminocyclohexyl)-1,2,3-oxadiazol-3-ium-5-yl)((3-(2-phenylacetamido)-5-(trifluoromethyl)phenyl)carbamoyl)amide]	4.70 to 6.00	< 4.70	–
